Columns and labels:
delF508-CFTR [1] = molecular target: T1, delF508-CFTR (Homo sapiens, UniProt P13569, DEL508-508); assay: immunolabelling, cellular localisation of delF508-CFTR in CF15 cells; assay type: cell-based; conditions: 100 μM
T1 construct: CF15 human lung epithelial cells homozygous for the delF508 deletion; endogenous in cells; host or cells: CF15 human nasal/lung epithelial cells, homozygous delF508
Method: Immunolabelling allows visualising the cellular localisation of the CFTR protein by an anti-CFTR primary antibody (Ab), and a secondary Cy3-labelled fluorescent antibody directed against the primary antibody.
The cells are first seeded on cover slips in an appropriate culture medium. The cells are then washed 3 times with TBS (157 mM NaCl, […] Tris base, pH 7.4) of 5 min. each time and then fixed by adding 3% TBS-paraformaldehyde for 20 min. After 3 washes with TBS (5 min), the cells are incubated with 0.1% TBS-triton (10 min) to make holes in the cell membrane, and then washed 3 times with TBS before being exposed to 0.5% TBS-BSA-0.05% saponin for 1 hr. The cells are then incubated with the primary anti-CFTR C terminal antibody (2 μg/ml) for 1 hr. The cells are washed 3 times (5 min. each) with TBS-BSA-saponin before incubating with the GAM-cy3 secondary antibody ( 1/400) for 1 hr. After 2 TBS washes (5 min. each), the nuclei are labelled by incubating with Topro3 ( 1/1,000) for 5 min. Finally, the cover slips can be mounted on a glass slide after 3 final TBS washes of 5 min. each. The slides are observed with a confocal microscope (Bio-Rad) using laser excitation at appropriate wave-lengths. In order to differentiate Cy3 from Topro3 labelling, the colour of the Topor3 fluorescence has been changed to blue (colour of the nuclei). […]

CHO-WT cells = assay: MTT cytotoxicity test; assay type: cell-based, Chinese Hamster; conditions: CHO-WT cells incubated 2 hrs, different concentrations
Method: CHO-WT cells: CHO (Chinese Hamster Ovary) cells are fibroblasts transfected with the wild-type CFTR gene (CFTR-WT). These cells will therefore overexpress the CFTR protein.
The MTT cytotoxicity test is a […] test based on the capacity of mitochondrial dehydrogenases to metabolise MTT (a yellow tetrazolium salt) into formazan (purple). The absorbance is proportional to the concentration of converted dye and can then be measured by spectrophotometry. The cells are incubated in 96-well microplates in the presence of the agent to be tested for 2 hours. Three controls are performed: 100% live cells: cells without any agent; 0% live cells: cells left under normal atmosphere; blank: medium without cells. The cells are rinsed with RPMI medium without phenol red in order for the colour of the medium not to interfere with absorbance measurements. They are then incubated for 4 hours with 100 μl RPMI solution supplemented with MTT (0.5 mg/ml). The medium is eliminated, 100 μl DMSO is added which permit to dissolve the converted dye (formazan). The absorbance is measured by spectrophotometry at 570 nm (purple); 630 nm (background noise). In order to ignore the background noise, the following calculation is performed: DOreelle=DO570nm−DO630nm. The results are then normalised with respect to the controls (100% and 0% live cells) and presented in the form of a mean+/−SEM. […]

wild-type CFTR [2] = molecular target: T2, wild-type CFTR (Homo sapiens, UniProt P13569); assay: iodide efflux, CFTR addressing in Calu-3 cells after 2 hrs treatment; assay type: cell-based; conditions: Calu-3 cells treated for 2 hrs, 100 μM
T2 construct: Calu-3 cells are human lung epithelial cells expressing the wild-type CFTR gene; endogenous in cells; host or cells: Calu-3 human lung epithelial cells
Method: (§1) Calu-3 cells: Calu-3 cells are human lung epithelial cells expressing the wild-type CFTR gene.
(§2) Measurements of chloride ion transport in the cells were performed using the radioactive iodide efflux technique (Becq et al., Journal of Biological Chemistry 274, 27415-27425 (1999); Dormer et al., Journal of Cell Science 114, 4073-4081 (2001). The ^125I tracer is incorporated into the intracellular milieu. Then, the quantity of radiotracer coming out of the cell is then measured after adding various pharmacological agents. Iodide is used as a tracer of chloride ion transport. ^125I has the advantage of being short-lived compared to other markers such as ^35Cl (respective half-lives: […] and 300,000 years).
(§3) The cells are incubated in an appropriate medium in 24-well plates. The cells are rinsed twice with efflux medium (136.6 mM NaCl, 5.4 mM KCl, 0.3 mM KH2PO4, 0.3 mM NaH2PO4, 4.2 mM NaHCO3, 1.3 mM CaCl2, 0.5 mM MgCl2, 0.4 mM MgSO4, 10 mM HEPES, 5.6 mM D-glucose) in order to eliminate dead cells, which release radioactivity in an anarchic fashion. […] The following steps are performed using a robot (MultiPROBE, Packard): the loading medium is rinsed with efflux medium in order to eliminate extracellular radioactivity. […] The radioactivity present in the haemolysis tubes is measured as counts per minute (cpm) using a gamma counter (Cobra II, Packard). […]

GSK-3 = conditions: cited from earlier work
delF508-CFTR [3] = molecular target: T1, delF508-CFTR; assay: iodide efflux, delF508 addressing in CF15 cells; assay type: cell-based; conditions: for delF508-CFTR activity (iodide efflux) normalised to MPB-91 standard treatment: CF15 cells treated 2 hrs at 37° C., stimulation 10 μM Forskoline+30 μM Genisteine, 250 μM MPB-91 for 2 hrs = 100%, alsterpaullone 100 μM; for effect of known CFTR inhibitors on delF508 activity after treatment with kenpaullone: CF15 cells treated with kenpaullone, iodide transport
Method: CF15 cells: CF15 cells are human nasal epithelial cells expressing the AF508-CFTR gene.
The cells are incubated in an appropriate medium in 24-well plates. […] The iodide equilibrates on either side of the cell membrane. The following steps are performed using a robot (MultiPROBE, Packard): the loading medium is rinsed with efflux medium in order to eliminate extracellular radioactivity. The supernatant is collected every minute into haemolysis tubes and the medium is replaced by an equivalent volume of medium (500 μl). No drug is added to the samples taken in the first three minutes in order to obtain a stable baseline characterising the passive exit of I ions. The 7 samples that follow are obtained in the presence of the molecule to be tested. At the end of the experiment, the cells are lysed by adding 500 μl of 0.1 N NaOH/0.1% SDS (30 min), which allows determining the level of radioactivity remaining inside the cell. The radioactivity present in the haemolysis tubes is measured as counts per minute (cpm) using a gamma counter (Cobra II, Packard). […] This iodide flux is represented by a graph. In order to quantify the iodide efflux due to administration of the tested molecule, the relative flux is calculated as follows in order to ignore the basal flux: Relative velocity (min^−1)=Rpeak−Rbasal. […] The results are presented in the form of a mean+/−SEM. Student's statistical test is used to compare the effect of the various drugs with the controls (the corresponding P<0.01 values are considered to be statistically significant).
The study of delF508-CFTR protein addressing is performed in the laboratory by using a combination of pharmacological, cellular imagery, biochemical and electrophysiological tests on CF15 human lung epithelial cells homozygous for the delF508 deletion. For each experiment, the addition of a cocktail (10 μM Forskoline+30 μM Genisteine) allows activation of the CFTR when the latter is localised at the membrane. This allows an iodide efflux to be observed if delF508 addressing has been restored.

[4] = in vivo; cited from earlier work
wild-type CFTR [5] = molecular target: T2, wild-type CFTR; assay: iodide efflux, CFTR activity in Calu-3 cells (test as activator); assay type: cell-based; conditions: n=8, controls forskoline 5 μM, MPB-91 250 μM
Method: as §1, §2, §3

T1 sequence (P13569 with tags, fused parts or gaps DEL508-508): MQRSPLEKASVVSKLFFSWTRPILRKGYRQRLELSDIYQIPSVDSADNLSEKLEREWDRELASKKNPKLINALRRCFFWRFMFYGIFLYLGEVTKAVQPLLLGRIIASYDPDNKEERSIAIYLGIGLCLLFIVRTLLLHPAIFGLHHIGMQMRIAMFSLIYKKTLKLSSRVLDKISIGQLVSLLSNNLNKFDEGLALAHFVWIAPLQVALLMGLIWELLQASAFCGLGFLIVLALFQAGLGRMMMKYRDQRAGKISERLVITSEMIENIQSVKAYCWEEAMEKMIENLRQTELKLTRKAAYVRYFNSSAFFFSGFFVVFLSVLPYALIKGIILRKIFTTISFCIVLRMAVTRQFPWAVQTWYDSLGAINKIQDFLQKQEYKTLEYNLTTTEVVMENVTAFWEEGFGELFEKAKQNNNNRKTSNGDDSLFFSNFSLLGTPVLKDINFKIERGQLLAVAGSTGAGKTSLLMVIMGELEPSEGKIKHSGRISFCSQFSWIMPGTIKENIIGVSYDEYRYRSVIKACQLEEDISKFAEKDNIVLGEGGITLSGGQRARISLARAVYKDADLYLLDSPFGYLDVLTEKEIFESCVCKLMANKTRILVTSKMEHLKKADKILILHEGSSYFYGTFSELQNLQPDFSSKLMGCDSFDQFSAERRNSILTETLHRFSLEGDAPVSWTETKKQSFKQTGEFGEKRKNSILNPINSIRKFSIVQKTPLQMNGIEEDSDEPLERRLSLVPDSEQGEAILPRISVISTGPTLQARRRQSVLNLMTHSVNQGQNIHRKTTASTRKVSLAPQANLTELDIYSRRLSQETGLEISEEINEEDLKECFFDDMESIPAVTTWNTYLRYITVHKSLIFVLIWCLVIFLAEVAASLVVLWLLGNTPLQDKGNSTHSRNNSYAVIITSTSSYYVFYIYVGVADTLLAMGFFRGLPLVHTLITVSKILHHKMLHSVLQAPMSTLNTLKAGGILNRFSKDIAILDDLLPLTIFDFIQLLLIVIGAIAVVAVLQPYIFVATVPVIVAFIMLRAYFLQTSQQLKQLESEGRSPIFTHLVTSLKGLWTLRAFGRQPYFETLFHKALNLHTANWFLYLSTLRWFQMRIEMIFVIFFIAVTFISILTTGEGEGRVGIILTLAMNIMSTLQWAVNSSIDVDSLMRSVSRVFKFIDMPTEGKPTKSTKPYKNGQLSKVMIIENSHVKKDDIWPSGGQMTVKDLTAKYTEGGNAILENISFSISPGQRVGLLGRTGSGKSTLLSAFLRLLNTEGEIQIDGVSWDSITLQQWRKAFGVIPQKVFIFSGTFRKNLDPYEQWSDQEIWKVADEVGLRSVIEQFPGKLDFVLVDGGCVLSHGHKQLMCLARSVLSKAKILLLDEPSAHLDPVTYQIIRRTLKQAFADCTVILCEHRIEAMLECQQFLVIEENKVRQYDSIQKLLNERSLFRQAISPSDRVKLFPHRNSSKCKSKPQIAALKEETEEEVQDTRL
T2 sequence (P13569 whole entry): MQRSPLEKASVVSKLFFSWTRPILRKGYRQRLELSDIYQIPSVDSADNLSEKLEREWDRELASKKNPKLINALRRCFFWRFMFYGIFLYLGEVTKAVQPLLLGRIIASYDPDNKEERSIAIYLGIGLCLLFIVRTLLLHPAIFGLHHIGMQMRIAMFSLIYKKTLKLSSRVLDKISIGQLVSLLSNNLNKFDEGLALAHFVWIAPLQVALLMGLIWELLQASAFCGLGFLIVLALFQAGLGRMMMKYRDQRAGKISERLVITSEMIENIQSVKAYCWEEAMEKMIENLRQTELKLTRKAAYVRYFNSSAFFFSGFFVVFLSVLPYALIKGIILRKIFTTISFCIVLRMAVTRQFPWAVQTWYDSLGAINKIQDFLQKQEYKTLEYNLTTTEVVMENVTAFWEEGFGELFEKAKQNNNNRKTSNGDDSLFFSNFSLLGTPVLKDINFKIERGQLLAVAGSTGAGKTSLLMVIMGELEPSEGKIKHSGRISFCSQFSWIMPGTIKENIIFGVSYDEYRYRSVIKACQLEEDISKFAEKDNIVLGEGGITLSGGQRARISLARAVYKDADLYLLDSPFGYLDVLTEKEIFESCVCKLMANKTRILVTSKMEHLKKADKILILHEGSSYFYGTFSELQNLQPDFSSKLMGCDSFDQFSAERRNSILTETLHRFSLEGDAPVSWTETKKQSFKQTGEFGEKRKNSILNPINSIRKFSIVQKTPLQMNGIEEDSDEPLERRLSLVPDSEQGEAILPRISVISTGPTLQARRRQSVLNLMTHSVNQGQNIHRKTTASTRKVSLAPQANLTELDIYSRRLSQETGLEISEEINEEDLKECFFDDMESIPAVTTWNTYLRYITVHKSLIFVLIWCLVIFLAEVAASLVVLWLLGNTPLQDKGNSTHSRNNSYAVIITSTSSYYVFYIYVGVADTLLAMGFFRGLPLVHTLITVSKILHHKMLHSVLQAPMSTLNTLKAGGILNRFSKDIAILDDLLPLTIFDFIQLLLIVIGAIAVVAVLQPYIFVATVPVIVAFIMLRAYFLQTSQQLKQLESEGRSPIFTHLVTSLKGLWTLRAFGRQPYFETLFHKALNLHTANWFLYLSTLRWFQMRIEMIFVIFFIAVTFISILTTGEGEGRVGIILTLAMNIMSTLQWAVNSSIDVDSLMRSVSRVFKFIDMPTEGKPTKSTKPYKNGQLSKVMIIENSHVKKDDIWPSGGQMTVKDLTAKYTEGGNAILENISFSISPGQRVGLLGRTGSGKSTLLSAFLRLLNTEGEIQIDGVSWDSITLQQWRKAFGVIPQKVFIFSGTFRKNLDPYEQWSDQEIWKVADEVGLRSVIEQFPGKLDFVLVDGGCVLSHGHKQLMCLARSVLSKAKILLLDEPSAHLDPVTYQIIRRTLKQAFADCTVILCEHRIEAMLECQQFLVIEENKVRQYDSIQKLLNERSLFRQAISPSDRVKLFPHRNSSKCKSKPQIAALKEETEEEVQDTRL

What does the source list for `O=C1Cc2c([nH]c3ccc(Br)cc23)-c2ccccc2N1` [kenpaullone]?
localisation of delF508 protein (delF508-CFTR [1]): redirect the delF508 protein towards the membrane; cell viability (MTT) (CHO-WT cells): viable at all concentrations; CFTR activity after treatment (wild-type CFTR addressing) (wild-type CFTR [2]): not significantly different from the controls; selectivity for GSK-3 inhibition (GSK-3): highly selective; EC50 (delF508-CFTR [3]): 22 ± 1.7 µM; delF508-CFTR activity (iodide efflux) normalised to MPB-91 standard treatment (delF508-CFTR [3]): higher than that obtained with MPB-91; toxicity in animals [4]: only very slight toxicity; activation of wild-type CFTR or other anionic transporter (wild-type CFTR [5]): not found to be an activator

Which “effect of known CFTR inhibitors on delF508 activity after treatment with kenpaullone” value (“effect of known CFTR inhibitors” for short) (delF508-CFTR [3]) does the source give for `O=S(=O)(O)c1cc(N=C=S)ccc1C=Cc1ccc(N=C=S)cc1S(=O)(=O)O` [DIDS] here?
The value was “insensitive”.

For `COc1ccc(Cl)cc1C(=O)NCCc1ccc(S(=O)(=O)NC(=O)NC2CCCCC2)cc1` [glibenclamide], which “effect of known CFTR inhibitors” value (delF508-CFTR [3]) is on record?
Its value is “blocked”.

For `O=C1Cc2c([nH]c3ccc([N+](=O)[O-])cc23)-c2ccccc2N1` [alsterpaullone], which “delF508-CFTR activity (iodide efflux) normalised to MPB-91 standard treatment” value (delF508-CFTR [3]) is on record?
Its value is “no effect”.

With `O=C(O)c1ccccc1Nc1ccccc1` [DPC] as the molecule, how does the “effect of known CFTR inhibitors” value (delF508-CFTR [3]) read?
The value was “blocked”.

Reference: patent US7605153B2, “Use of paullone derivatives for the production of medicaments for the treatment of mucoviscidosis and diseases related to protein addressing errors in cells” (Centre National de la Recherche Scientifique - CNRS, priority 2005, dated 2009)
